Values quoted from earlier work as cited in patent US20060270611A1, “PEDIATRIC FORMULATION OF TOPIRAMATE” (priority 2005, published 2006).

Details: clinical trials of human epilepsy; adjunctive therapy or monotherapy

CC1(C)O[C@H]2[C@H]3OC(C)(C)O[C@]3(COS(N)(=O)=O)OC[C@H]2O1 [Topiramate, 2,3:4,5-bis-O-(1-methylethylidene) β-D-fructopyranose sulfamate]
efficacy in treating simple and complex partial seizures and secondarily generalized seizures: effective as adjunctive therapy or as monotherapy
